{"source": "patent US5789447A", "about": "“Nitric oxide releasing compounds as protective agents in ischemia reperfusion injury” (priority 1995, dated 1998)", "key": {"XO [1]": {"target": "T1, XO (Bos taurus, UniProt P80457)", "T1 sequence (P80457 whole entry)": "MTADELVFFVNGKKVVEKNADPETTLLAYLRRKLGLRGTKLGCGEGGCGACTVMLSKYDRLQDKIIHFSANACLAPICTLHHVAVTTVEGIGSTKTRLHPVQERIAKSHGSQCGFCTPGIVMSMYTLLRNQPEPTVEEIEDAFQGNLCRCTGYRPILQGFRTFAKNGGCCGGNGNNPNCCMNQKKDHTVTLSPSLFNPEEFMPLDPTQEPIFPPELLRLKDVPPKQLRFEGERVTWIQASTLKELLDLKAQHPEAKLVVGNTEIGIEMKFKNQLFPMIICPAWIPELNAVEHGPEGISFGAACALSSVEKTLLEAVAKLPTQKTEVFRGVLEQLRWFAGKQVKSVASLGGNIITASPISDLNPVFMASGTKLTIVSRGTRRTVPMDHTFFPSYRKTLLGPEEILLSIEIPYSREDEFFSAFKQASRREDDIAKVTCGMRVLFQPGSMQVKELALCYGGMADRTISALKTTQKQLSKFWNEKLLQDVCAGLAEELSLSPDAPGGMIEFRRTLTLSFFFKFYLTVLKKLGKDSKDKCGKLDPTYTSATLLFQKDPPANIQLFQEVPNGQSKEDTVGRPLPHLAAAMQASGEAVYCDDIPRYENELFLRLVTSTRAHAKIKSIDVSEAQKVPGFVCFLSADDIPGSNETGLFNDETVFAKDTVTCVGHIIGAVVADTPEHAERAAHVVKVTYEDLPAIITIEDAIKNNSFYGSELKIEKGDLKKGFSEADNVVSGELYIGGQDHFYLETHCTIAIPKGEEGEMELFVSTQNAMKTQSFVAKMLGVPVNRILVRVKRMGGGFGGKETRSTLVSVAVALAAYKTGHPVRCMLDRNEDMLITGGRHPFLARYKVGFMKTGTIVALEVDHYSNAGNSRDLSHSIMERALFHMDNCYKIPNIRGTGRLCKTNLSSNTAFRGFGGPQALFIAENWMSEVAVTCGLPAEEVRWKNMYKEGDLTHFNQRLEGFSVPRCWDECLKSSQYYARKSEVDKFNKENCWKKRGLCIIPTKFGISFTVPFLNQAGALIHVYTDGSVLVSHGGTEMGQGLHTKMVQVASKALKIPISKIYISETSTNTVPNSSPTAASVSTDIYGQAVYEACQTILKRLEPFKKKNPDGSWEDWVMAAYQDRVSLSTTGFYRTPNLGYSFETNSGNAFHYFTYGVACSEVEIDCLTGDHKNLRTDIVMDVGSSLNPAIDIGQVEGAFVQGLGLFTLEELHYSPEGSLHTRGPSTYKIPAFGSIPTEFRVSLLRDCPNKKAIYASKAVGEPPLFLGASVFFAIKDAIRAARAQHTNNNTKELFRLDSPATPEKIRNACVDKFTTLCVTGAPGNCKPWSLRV", "experiment": "XO activity by uric acid production at 305 nm", "assay_type": "biochemical", "method": "(§1) The activity of XO was monitored in the absence and presence of 1 mM DEA/NO by two different assays. Superoxide-induced reduction of ferricytochrome c to ferrocytochrome c was monitored spectrophotometrically at 550 nm (Fridovich, Handbook of Method for Oxygen Radical Research, pages 213-215 (1985)). The reaction was carried out in a 1 ml volume in aerated phosphate buffer (pH 7.8, 50 mM) containing 50 μM DETAPAC. HX was maintained at 2.5 mM and ferricytochrome c at 20 μM. The reactions were initiated with the addition of XO (final concentration of 0.2 units/ml). The activity of XO in the absence and presence of 1 mM DEA/NO was directly monitored by measuring the production of uric acid spectrophotometrically at 305 nm for 10 min under the same conditions but in the absence of ferricytochrome c. All enzymatic assays and chemical reactions were done at 37° C."}, "[2]": {"test_system": "ventral mesencephalic cells", "experiment": "[3H]dopamine uptake after hydrogen peroxide or HX/XO exposure", "assay_type": "cell-based, Sprague Dawley rats", "method": "(§2) The ventral tegmental mesencephalon was dissected from 14 day old embryos (precisely timed pregnant Sprague Dawley rats; Zivic-Miller, Allison Park, Pa.) under sterile conditions and mechanically dissociated into complete culture medium. The culture medium consisted of a 1:1 mixture of modified minimum essential medium and nutrient mixture F-12 supplemented with 6 mg/ml D-gluose, 2 mM glutamine, 0.5 U/ml penicillin G, 0.5 mg/ml streptomycin (all from Gibco, Grand Island, N.Y.) and 15% equine serum (Hyclone, Logan, Utah). Cells were plated into multiwell plates that were previously coated with poly-D-lysine (15 μg/ml) and laminin (10 μg/ml) at a density of 40,000 cells/cm^2 (Costar). The cells were maintained for 5-7 days at 37° C. in an atmosphere of 95% air and 5% CO2 saturated with H2 O. On the fifth day of culture 1 μM cytosine-β-D-arabinofuranoside was added to inhibit glial cell growth.\nUptake of dopanine by dopaminergic neurons was assayed as follows. The cells in each well were washed three times with 1 ml PBS containing 6 mg/ml glucose and thereafter Dulbecco's modified essential medium (Quality Biological, Inc., Farmingham, Mass.) containing 6 mg/ml D-glucose, 50 μM ascorbic acid, and 5×10^-8 M [^3 H]dopamine (NEN, Boston, Mass.; specific activity of […]) was added and incubated for 15 min at 37° C. [^3 H]dopamine uptake was stopped by aspirating the incubation solution and washing the cells three times with ice-cold PBS containing 6 mg/ml D-glucose. The cells were removed by washing the wells with an equal volume of 0.2N NaOH and 0.2N HCl containing 0.02% Triton X-100. The residual intracellular radioactivity in the cells was determined by scintillation spectroscopy.\nAccordingly, ventral mesencephalic cell cultures were exposed to 100 μM H2 O2 for 1 hr in the presence and absence of 100 μM DEA/NO and evaluated for their ability to take up dopamine.\nIn a separate study, cells were cultured for 7 days and then exposed to 50 or 100 μM hydrogen peroxide for 60 min or to 0.04 units/ml HX/XO for 5 or 10 min in the absence or presence of 100 μM DEA/NO. The cells were washed with PBS containing 6 g/l D-glucose, culture medium was added, and the cells were incubated for 18 hr. The ability of the cells (6 wells of 450,000 cells/well per group) to take up ^3 [H]-dopamine was measured. These cells were exposed to ten times less hydrogen peroxide or HX/XO than the V79 cells described above."}, "XO [3]": {"target": "T1, XO", "experiment": "XO activity by superoxide-induced reduction of ferricytochrome c", "assay_type": "biochemical", "method": "as §1"}, "[4]": {"test_system": "Chinese hamster V79 lung fibroblasts", "experiment": "V79 clonogenic survival, hydrogen peroxide cytotoxicity", "assay_type": "cell-based", "from_the_text": "Colonies containing more than 50 cells were scored."}, "[5]": {"experiment": "Chemical controls: DEA/NO or NO with hydrogen peroxide", "assay_type": "physicochemical", "settings": "presence of 1 mM hydrogen peroxide", "method": "Anaerobic solutions of 1 mM hydrogen peroxide in 10 mM phosphate buffer, pH 7.4, were mixed with 1 mM NO. […] The rate of decomposition of DEA/NO was unaffected by the presence of 1 mM hydrogen peroxide; likewise, hydrogen peroxide was not consumed by DEA/NO or intermediates of the DEA/NO decomposition reaction as measured by the production of I3^- (Hochanadel, J. Phys. Chem., 56, 587-594 (1952))."}, "mesencephalic neurons": {"test_system": "mesencephalic neurons", "experiment": "Morphology of mesencephalic neurons (neurites and somas)", "assay_type": "cell-based, Sprague Dawley rats", "method": "as §2\nWhen cells were exposed to hydrogen peroxide for 1 hr, varicosities formed in the neurites and somas swelled. Exposure to HX/XO for as short as 5 min elicited similar morphological changes in mesencephalic neurons."}, "[6]": {"test_system": "Chinese hamster V79 lung fibroblasts", "experiment": "V79 clonogenic survival, hypoxanthine/xanthine oxidase (HX/XO) cytotoxicity", "method": "Chinese hamster V79 lung fibroblasts were cultured in F12 medium supplemented with 10% fetal calf serum and antibiotics. Cell survival was assessed by clonogenic assay with 85-95% plating efficiency. Stock cultures of exponentially growing cells were trypsinized, rinsed, and plated (7×10^5 cells/dish) into a number of 100 cm^2 petri dishes and incubated 16 hr at 37° C. prior to experimental protocols.\nIt has been shown that exposure of V79 cells to hydrogen peroxide results in dose-dependent cytotoxicity (Mitchell et al., supra).\nHX and XO were purchased from Boehringer Co. (Indianapolis, Ind.). Nitrite, diethylamine, sulfinamide, diethylenetriaminepentaacetic acid (DETAPAC) and N-(1-naphthyl)ethylenediaminedihydrogenchloride (NEDD) were purchased from Aldrich (Milwaukee, Wis.). Cytosine-β-D-arabinofuranoside and ferricytochrome c were purchased from Sigma (St. Louis, Mo.). DEA/NO and SPER/NO were synthesized as previously described (Maragos et al., (1991), supra).\nExponentially growing cultures of Chinese hamster V79 fibroblasts were exposed to either HX/XO (final concentration of HX was 0.5 mM; 0.08 units/ml XO were used) for various amounts of time (FIG. 1A) or to various concentrations of hydrogen peroxide for one hour (FIG. 1B). […] Additionally, 1 mM DEA/NO was added to medium in the absence of cells, incubated at 37° C. for 1 hr or 16 hrs, and then added just prior to the addition of hydrogen peroxide to evaluate the effects of DEA/NO which had released NO. After treatment, cell monolayers were rinsed twice with phosphate-buffered saline (PBS), trypsinized, counted and plated in triplicate for macroscopic colony formation. Each dose determination was plated in triplicate and experiments were repeated a minimum of two times. Plates were incubated for 7 days, after which colonies were fixed with methanol/acetic acid (3:1), stained with crystal violet, and counted. Colonies containing more than 50 cells were scored."}, "NMDA receptor": {"test_system": "NMDA receptor", "settings": "U.S. Pat. No. 5,234,956; cited from earlier work"}, "neuronal cell death": {"test_system": "neuronal cell death", "settings": "Lafon-Cazal et al.; cited from earlier work"}, "[7]": {"settings": "Kanner et al.; cited from earlier work"}, "[8]": {"test_system": "Leukocyte-endothelial cell adhesive interactions", "settings": "postcapillary venules; Kubes et al. 1991; cited from earlier work"}, "[9]": {"test_system": "endothelial cell monolayers", "settings": "Radomski et al.; cited from earlier work"}, "[10]": {"test_system": "Primary neuronal cell cultures", "settings": "as high as 1 mM; cited from earlier work"}, "platelet aggregation": {"test_system": "platelet aggregation", "settings": "Rubanyi et al.; cited from earlier work"}, "[11]": {"settings": "Saran et al. 1990; cited from earlier work"}, "lung tissue": {"test_system": "lung tissue", "settings": "high concentrations in the gas phase; cited from earlier work"}, "[12]": {"settings": "100 μM with hydrogen peroxide or HX/XO"}}, "note": "“Also recorded” adds a separate entry of the source.", "data": [{"molecule": "CCN(CC)/[N+]([O-])=N/[O-].[Na+]", "note": "[DEA/NO]", "values": [{"measurement": "inhibition of XO activity, uric acid production", "setting": "XO [1]; 1 mM, preincubated with HX/XO", "value": "did not inhibit the activity of XO"}, {"measurement": "uric acid production (UV 305 nm) / XO substrate turnover", "setting": "XO [1]; presence of DEA/NO", "value": "not inhibited; also recorded: nor affect XO substrate turnover"}, {"measurement": "[3H] Dopamine Uptake", "setting": "[2]; 100 μM DEA/NO with 50 μM H2O2, 60 min", "value": "2.8 ± 0.11", "unit": "pmol/well/15 min"}, {"measurement": "[3H] Dopamine Uptake", "setting": "[2]; 100 μM DEA/NO with 100 μM H2O2, 60 min", "value": "2.6 ± 0.22", "unit": "pmol/well/15 min"}, {"measurement": "[3H] Dopamine Uptake", "setting": "[2]; 100 μM DEA/NO with 0.04 U/ml HX/XO, 5 min", "value": "2.6 ± 0.15", "unit": "pmol/well/15 min"}, {"measurement": "[3H] Dopamine Uptake", "setting": "[2]; 100 μM DEA/NO with 0.04 U/ml HX/XO, 10 min", "value": "2.3 ± 0.10", "unit": "pmol/well/15 min"}, {"measurement": "[3H] Dopamine Uptake", "setting": "[2]; 100 μM DEA/NO, no addition (None)", "value": "2.7 ± 0.11", "unit": "pmol/well/15 min"}, {"measurement": "protection of dopamine uptake", "setting": "[2]; [12]", "value": "complete protection"}, {"measurement": "retained function (dopamine uptake)", "setting": "[2]; hydrogen peroxide in presence of DEA/NO (100 μM, 1 hr), FIG. 3", "value": "~100", "unit": "%"}, {"measurement": "inhibition of XO activity, production of superoxide (cytochrome c reduction)", "setting": "XO [3]; 1 mM, preincubated with HX/XO", "value": "did not inhibit the activity of XO"}, {"measurement": "SOD sensitive ferricytochrome c reduction", "setting": "XO [3]; presence of DEA/NO", "value": "quenching; also recorded: inhibited"}, {"measurement": "protection against hydrogen peroxide cytotoxicity", "setting": "[4]; 1 mM, added just prior to hydrogen peroxide, 1 hr exposure", "value": "nearly complete protection"}, {"measurement": "protection against hydrogen peroxide cytotoxicity", "setting": "[4]; 1 mM, allowed to release NO for 1 hr prior to hydrogen peroxide", "value": "only modest protection"}, {"measurement": "effect on hydrogen peroxide cytotoxicity", "setting": "[4]; 1 mM, incubated 16 hr in medium prior to hydrogen peroxide", "value": "enhanced the cytotoxicity of hydrogen peroxide"}, {"measurement": "effect of treatment after hydrogen peroxide", "setting": "[4]; 1 hr hydrogen peroxide followed by 1 hr treatment with 1 mM", "value": "did not treat oxygen free radical mediated tissue damage"}, {"measurement": "rate of decomposition / rate of formation of NO", "setting": "[5]", "value": "not altered; also recorded: unaffected"}, {"measurement": "morphological changes", "setting": "mesencephalic neurons; 100 μM alone, 1 hr", "value": "failed to cause morphological changes"}, {"measurement": "abnormalities in the neurites and somas", "setting": "mesencephalic neurons; [12]", "value": "did not demonstrate abnormalities in the neurites and somas"}, {"measurement": "protection against HX/XO-induced cell killing", "setting": "[6]; 0.1 mM", "value": "marginal protection"}, {"measurement": "protection against HX/XO-induced cell killing", "setting": "[6]; 1 mM", "value": "significantly protected against cell killing"}]}, {"molecule": "O=[N+]([O-])OCC(CO[N+](=O)[O-])O[N+](=O)[O-]", "note": "[nitroglycerin]", "values": [{"measurement": "NMDA receptor-mediated neuronal damage", "setting": "NMDA receptor", "value": "reduce NMDA receptor-mediated neuronal damage"}]}, {"molecule": "CC1(C)CCC=[N+]1[O-]", "note": "[DMPO]", "values": [{"measurement": "reduction of neuronal cell death", "setting": "neuronal cell death", "value": "more efficiently than the nitric oxide synthase inhibitor L-N-nitroarginine"}]}, {"molecule": "nitric oxide [NO]", "values": [{"measurement": "quenching of Fenton-type oxidation", "setting": "[7]", "value": "could quench Fenton-type oxidation"}, {"measurement": "leukocyte-endothelial cell adhesive interactions", "setting": "[8]", "value": "inhibited"}, {"measurement": "platelet adhesion to endothelial cell monolayers", "setting": "[9]", "value": "reduce platelet adhesion to endothelial cell monolayers"}, {"measurement": "adverse effects in primary neuronal cell cultures", "setting": "[10]", "value": "no adverse effects"}, {"measurement": "platelet aggregation", "setting": "platelet aggregation", "value": "block platelet aggregation"}, {"measurement": "reaction rate constant for NO and O2", "setting": "[11]", "value": "5.6×10^7 M^-1 S^-1"}, {"measurement": "lung tissue damage", "setting": "lung tissue", "value": "damages lung tissue"}]}]}
